Source: the NIST ThermoML archive (doi:10.1016/j.tca.2013.03.025)
Values joined by “and” are separate entries in the source; they are usually repeats but may differ in a detail not shown here. Identical values can stand only once.

Experiments:
[1] = 101 kPa, Liquid; for viscosity: Concentric cylinders viscometry; for mass density: Vibrating tube method
[2] = refractive index (Na D-line) (dimensionless); conditions: 101.33 kPa, Liquid, Standard Abbe refractometry
[3] = xn = mol fraction of the nth substance listed; conditions: 101 kPa, Liquid, x2 = 0; for viscosity: Concentric cylinders viscometry; for mass density: Vibrating tube method
[4] = refractive index (Na D-line) (dimensionless); xn = mol fraction of the nth substance listed; conditions: 101 kPa, Liquid, Standard Abbe refractometry, x2 = 0

CCCCOC(=O)C(C)O (stereo not drawn) [butyl 2-hydroxypropanoate]
Conditions | mass density, [1] [kg/m3] | refractive index, [2] | viscosity, [1]
288.15 K | 987.269 | 1.42379 | 4.628 mPa·s
293.15 K | 982.366 | 1.42152 | 3.88 mPa·s
298.15 K | 977.448 | 1.41925 | 3.307 mPa·s
303.15 K | 972.515 | 1.41697 | 2.85 mPa·s and 2.86 mPa·s
308.15 K | 967.567 | 1.41469 and 1.4147 | 2.481 mPa·s
313.15 K | 962.603 | 1.4124 and 1.41241 | 2.181 mPa·s
318.15 K | 957.624 | 1.41006 and 1.41005 | 1.935 mPa·s
323.15 K | 952.631 | 1.40778 | 1.728 mPa·s

CC(O)CO (stereo not drawn) [1,2-propanediol]
Conditions | mass density, [1] [kg/m3] | refractive index, [2] | viscosity, [1] [mPa·s]
288.15 K | 1039.87 | 1.43437 | 82.54
293.15 K | 1036.25 | 1.4327 | 59.62
298.15 K | 1032.56 | 1.43102 | 44.03
303.15 K | 1028.88 | 1.42934 | 33.16
308.15 K | 1025.14 | 1.42764 | 25.45
313.15 K | 1021.35 | 1.42591 | 19.85
318.15 K | 1017.52 | 1.4242 | 15.73
323.15 K | 1013.66 | 1.42246 | 12.64

CC(O)CO (stereo not drawn) [1,2-propanediol] + CCCCOC(=O)C(C)O
Conditions | mass density, [3] [kg/m3] | refractive index, [4] | viscosity, [3] [mPa·s]
288.15 K | 1039.87 | 1.43437 | 82.54
293.15 K | 1036.25 | 1.4327 | 59.62
298.15 K | 1032.56 | 1.43102 | 44.03
303.15 K | 1028.88 | 1.42934 | 33.16
308.15 K | 1025.14 | 1.42764 | 25.45
313.15 K | 1021.35 | 1.42591 | 19.85
318.15 K | 1017.52 | 1.4242 | 15.73
323.15 K | 1013.66 | 1.42246 | 12.64

CCCO [propan-1-ol] + CCCCOC(=O)C(C)O
Conditions | mass density, [3] [kg/m3] | refractive index, [4] | viscosity, [3] [mPa·s]
288.15 K | 807.752 | 1.38751 | 2.514
293.15 K | 803.767 | 1.38543 | 2.208
298.15 K | 799.755 | 1.3834 | 1.95
303.15 K | 795.717 | 1.38137 | 1.727
308.15 K | 791.638 | 1.37918 | 1.542
313.15 K | 787.521 | 1.37702 | 1.378
318.15 K | 783.357 | 1.37482 | 1.236
323.15 K | 779.137 | 1.37262 | 1.124

CCCO [propan-1-ol]
Conditions | mass density, [1] [kg/m3] | refractive index, [2] | viscosity, [1] [mPa·s]
288.15 K | 807.752 | 1.38751 | 2.514
293.15 K | 803.767 | 1.38543 | 2.208
298.15 K | 799.755 | 1.3834 | 1.95
303.15 K | 795.717 | 1.38137 | 1.727
308.15 K | 791.638 | 1.37918 | 1.542
313.15 K | 787.521 | 1.37702 | 1.378
318.15 K | 783.357 | 1.37482 | 1.236
323.15 K | 779.137 | 1.37262 | 1.124

OCCCO [propan-1,3-diol]
Conditions | mass density, [1] [kg/m3] | refractive index, [2] | viscosity, [1] [mPa·s]
288.15 K | 1055.96 | 1.44072 | 66.71
293.15 K | 1052.86 | 1.43932 | 52.02
298.15 K | 1049.75 | 1.43793 | 41.11
303.15 K | 1046.63 | 1.43653 | 32.89
308.15 K | 1043.5 | 1.43512 | 26.61
313.15 K | 1040.35 | 1.43374 | 21.76
318.15 K | 1037.17 | 1.43232 | 17.97
323.15 K | 1033.98 | 1.43087 | 14.97

OCCCO [propan-1,3-diol] + CCCCOC(=O)C(C)O
Conditions | mass density, [3] [kg/m3] | refractive index, [4] | viscosity, [3] [mPa·s]
288.15 K | 1055.96 | 1.44072 | 66.71
293.15 K | 1052.86 | 1.43932 | 52.02
298.15 K | 1049.75 | 1.43793 | 41.11
303.15 K | 1046.63 | 1.43653 | 32.89
308.15 K | 1043.5 | 1.43512 | 26.61
313.15 K | 1040.35 | 1.43374 | 21.76
318.15 K | 1037.17 | 1.43232 | 17.97
323.15 K | 1033.98 | 1.43087 | 14.97
